Reference: ChEMBL document CHEMBL1148751, “Optimization of the indenone ring of indenoisoquinoline topoisomerase I inhibitors” (2007)

Columns and labels:
Type in all cases: functional
MDA-MB-435 = test: Cytotoxicity against human MDA-MB-435 cells
DU-145 = test: Cytotoxicity against human DU145 cells
HCT-116 = test: Cytotoxicity against human HCT116 cells
HOP-62 = test: Cytotoxicity against human HOP62 cells
UACC-62 = test: Cytotoxicity against human UACC62 cells
SF-539 = test: Cytotoxicity against human SF539 cells
SN12C = test: Cytotoxicity against human SN12C cells
OVCAR-3 = test: Cytotoxicity against human OVCAR-3 cells

| SMILES | GI50 (MDA-MB-435) | GI50 (DU-145) | GI50 (HCT-116) | GI50 (HOP-62) | GI50 (UACC-62) | GI50 (SF-539) | GI50 (SN12C) | GI50 (OVCAR-3) |
| --- | --- | --- | --- | --- | --- | --- | --- | --- |
| CCc1ccc2c(c1)C(=O)c1c-2n(CCCN)c(=O)c2cc([N+](=O)[O-])ccc12 | 1.55 µM | 0.776 µM | 0.575 µM | 1.38 µM | 1.48 µM | 1.58 µM | 1.48 µM | 1.58 µM |
| O=C1c2cc(Cl)ccc2-c2c1c1ccc([N+](=O)[O-])cc1c(=O)n2CCCBr | 14.8 µM | 3.98 µM | 3.47 µM | 2.45 µM | 3.47 µM | 3.72 µM | 2.51 µM | 36.3 µM |
| CCc1ccc2c(c1)C(=O)c1c-2n(CCCN=[N+]=[N-])c(=O)c2cc(OC)c(OC)cc12 | > 100 µM | > 100 µM |  | 56.2 µM | 91.2 µM | 57.5 µM | > 100 µM | > 100 µM |
| [N-]=[N+]=NCCCn1c2c(c3ccc([N+](=O)[O-])cc3c1=O)C(=O)c1cc(I)ccc1-2 | 34.7 µM | 1.78 µM | 2.14 µM | 1.82 µM | 3.31 µM | 2.24 µM | 3.89 µM | 18.2 µM |
| CSc1ccc2c(c1)C(=O)c1c-2n(CCCN=[N+]=[N-])c(=O)c2cc([N+](=O)[O-])ccc12 | 6.03 µM | 1.15 µM | 0.776 µM | 0.603 µM | 0.708 µM | 0.891 µM | 1.05 µM | 3.89 µM |
| COc1cc2c3c(n(CCCN=[N+]=[N-])c(=O)c2cc1OC)-c1ccc(NC(C)=O)cc1C3=O | 50.1 µM | 50.1 µM | 50.1 µM | 50.1 µM | 50.1 µM | 50.1 µM | 50.1 µM | 50.1 µM |
| COc1ccc2c(c1)C(=O)c1c-2n(CCCN=[N+]=[N-])c(=O)c2cc(OC)c(OC)cc12 | > 100 µM | 26.3 µM | 27.5 µM | 11.5 µM | 20.9 µM | 56.2 µM | 64.6 µM | 49 µM |
| COc1cc2c3c(n(CCCN=[N+]=[N-])c(=O)c2cc1OC)-c1ccc(N(C)C)cc1C3=O | > 100 µM | > 100 µM |  | > 100 µM | > 100 µM | > 100 µM | > 100 µM | > 100 µM |
| COc1cc2c3c(n(CCCN)c(=O)c2cc1OC)-c1ccccc1C3=O | 0.631 µM | 2.63 µM | < 0.01 µM | 0.151 µM | 2.88 µM | 2.82 µM | 0.794 µM | 0.085 µM |
| CCOc1ccc2c(c1)C(=O)c1c-2n(CCCN=[N+]=[N-])c(=O)c2cc([N+](=O)[O-])ccc12 | 39.8 µM | 3.89 µM | 1.82 µM | 3.02 µM | 2.88 µM | 3.89 µM | 5.25 µM | 20 µM |
| CCOc1ccc2c(c1)C(=O)c1c-2n(CCCBr)c(=O)c2cc([N+](=O)[O-])ccc12 | 30.9 µM | 4.27 µM | 6.03 µM | 5.75 µM | 5.75 µM | 5.62 µM | 11.7 µM | 23.4 µM |
| CSc1ccc2c(c1)C(=O)c1c-2n(CCCN)c(=O)c2cc([N+](=O)[O-])ccc12 | 0.204 µM | < 0.01 µM | 0.023 µM | < 0.01 µM | < 0.01 µM | < 0.01 µM | 0.162 µM | 0.17 µM |
| COc1cc2c3c(n(CCCN=[N+]=[N-])c(=O)c2cc1OC)-c1ccccc1C3=O | 9.77 µM | 28.2 µM | 1.82 µM | 3.55 µM | 2.63 µM | 4.68 µM | 13.8 µM | 4.57 µM |
| [N-]=[N+]=NCCCn1c2c(c3ccc([N+](=O)[O-])cc3c1=O)C(=O)c1cc(-c3ccccc3)ccc1-2 | > 100 µM | > 100 µM | > 100 µM | > 100 µM | > 100 µM | > 100 µM | > 100 µM | > 100 µM |
| O=C1c2cc(F)ccc2-c2c1c1ccc([N+](=O)[O-])cc1c(=O)n2CCCBr | 37.2 µM | 3.39 µM | 7.24 µM | 2.29 µM | 2.29 µM |  | 27.5 µM | 46.8 µM |
| Cc1ccc(S(=O)(=O)Oc2ccc3c(c2)C(=O)c2c-3n(CCCBr)c(=O)c3cc([N+](=O)[O-])ccc23)cc1 | > 100 µM | 58.9 µM | > 100 µM | 7.59 µM | 23.4 µM | 50.1 µM | > 100 µM | 81.3 µM |
| COc1ccc2c(c1)C(=O)c1c-2n(CCCN)c(=O)c2cc(OC)c(OC)cc12 | 1.7 µM | < 0.01 µM | 0.054 µM | < 0.01 µM | 0.427 µM | 0.115 µM | 0.141 µM | 0.389 µM |
| COC(=O)c1ccc2c(c1)C(=O)c1c-2n(CCCCl)c(=O)c2cc([N+](=O)[O-])ccc12 | > 100 µM | 37.2 µM | 41.7 µM | 43.7 µM | 27.5 µM | 83.2 µM | > 100 µM | 95.5 µM |
| COc1cc2c3c(n(C)c(=O)c2cc1OC)-c1cc2c(cc1C3=O)OCO2 | 96 µM | 37 µM | 35 µM | 1.3 µM | 4.2 µM |  | 68 µM |  |

| SMILES | GI50 (MDA-MB-435) | GI50 (DU-145) | GI50 (HCT-116) | GI50 (HOP-62) | GI50 (UACC-62) | GI50 (SF-539) | GI50 (SN12C) | GI50 (OVCAR-3) |
| --- | --- | --- | --- | --- | --- | --- | --- | --- |
| COc1ccc2c(c1)C(=O)c1c-2n(CCCCl)c(=O)c2cc(OC)c(OC)cc12 | 37.2 µM | 4.07 µM | 8.32 µM | 4.07 µM | 3.02 µM | 6.76 µM | 5.5 µM | 70.8 µM |
| NCCCn1c2c(c3ccc([N+](=O)[O-])cc3c1=O)C(=O)c1cc(F)ccc1-2 | 0.081 µM | < 0.01 µM | < 0.01 µM | < 0.01 µM | < 0.01 µM | 0.028 µM | 0.034 µM | 0.052 µM |
| Cc1ccc2c(c1)C(=O)c1c-2n(CCCN=[N+]=[N-])c(=O)c2cc([N+](=O)[O-])ccc12 | > 100 µM | > 100 µM | 20.4 µM | 72.4 µM | 30.2 µM | > 100 µM | 58.9 µM | > 100 µM |
| Cc1ccc2c(c1)C(=O)c1c-2n(CCCN)c(=O)c2cc([N+](=O)[O-])ccc12 | 0.316 µM | 0.115 µM | 0.229 µM | 0.191 µM |  | 0.603 µM | 0.229 µM | 0.324 µM |
| O=C1c2ccccc2-c2c1c1ccc([N+](=O)[O-])cc1c(=O)n2CCCCl |  |  |  | 43.6 µM |  |  |  |  |
| NCCCn1c2c(c3ccc([N+](=O)[O-])cc3c1=O)C(=O)c1ccccc1-2 |  | 0.014 µM | < 0.005 µM |  |  |  | 0.009 µM |  |
| COc1cc2c3c(n(CCCN=[N+]=[N-])c(=O)c2cc1OC)-c1ccc([N+](=O)[O-])cc1C3=O | > 100 µM | 34.7 µM | > 100 µM | 89.1 µM | 69.2 µM | 38.9 µM | > 100 µM | > 100 µM |
| COC(=O)OCc1ccc2c(c1)C(=O)c1c-2n(CCCBr)c(=O)c2cc([N+](=O)[O-])ccc12 | > 100 µM | > 100 µM | 81.3 µM | 27.5 µM | 33.9 µM | 56.2 µM | > 100 µM | > 100 µM |
| CCc1ccc2c(c1)C(=O)c1c-2n(CCCN=[N+]=[N-])c(=O)c2cc([N+](=O)[O-])ccc12 | > 50.1 µM | > 50.1 µM | > 50.1 µM | > 50.1 µM | > 50.1 µM | > 50.1 µM | > 50.1 µM | > 50.1 µM |
| CCOc1ccc2c(c1)C(=O)c1c-2n(CCCN)c(=O)c2cc([N+](=O)[O-])ccc12 | 0.2 µM | 0.011 µM | 0.174 µM | 0.012 µM | 0.055 µM | 0.035 µM | 0.055 µM | 0.457 µM |
| O=C1c2cc(Br)ccc2-c2c1c1ccc([N+](=O)[O-])cc1c(=O)n2CCCCl | 0.282 µM | 0.214 µM | 3.72 µM | 3.63 µM |  | 0.661 µM | 0.019 µM | 0.575 µM |
| COc1ccc2c(c1)C(=O)c1c-2n(CCCN)c(=O)c2cc([N+](=O)[O-])ccc12 |  |  | < 0.01 µM | < 0.01 µM | < 0.01 µM | < 0.01 µM | < 0.01 µM |  |
| COc1cc2c3c(n(CCCN)c(=O)c2cc1OC)-c1ccc(C#N)cc1C3=O | 18.6 µM | 12.3 µM | 15.9 µM | 3.98 µM | 17 µM |  | 16.6 µM | 19.1 µM |
| CCc1ccc2c(c1)C(=O)c1c-2n(CCCN)c(=O)c2cc(OC)c(OC)cc12 | 2 µM | 1.62 µM |  | 1.82 µM | 1.82 µM | 1.62 µM | 1.74 µM | 1.51 µM |
| COc1cc2c3c(n(CCCN)c(=O)c2cc1OC)-c1ccc(N)cc1C3=O | 4.17 µM | 2.4 µM | 0.263 µM |  | 1.38 µM | 0.316 µM | 2.57 µM | 1.82 µM |
| COc1ccc2c(c1)C(=O)c1c-2n(CCCN=[N+]=[N-])c(=O)c2cc([N+](=O)[O-])ccc12 | 0.251 µM | < 0.001 µM | < 0.001 µM | < 0.001 µM |  | < 0.001 µM |  | 0.155 µM |
| [N-]=[N+]=NCCCn1c2c(c3ccc([N+](=O)[O-])cc3c1=O)C(=O)c1ccccc1-2 |  |  |  |  | 29.5 µM |  |  |  |
| COC(=O)c1ccc2c(c1)C(=O)c1c-2n(CCCCl)c(=O)c2cc(OC)c(OC)cc12 | > 100 µM | > 100 µM | > 100 µM | > 100 µM | > 100 µM |  | > 100 µM | > 100 µM |
| NCCCn1c2c(c3ccc([N+](=O)[O-])cc3c1=O)C(=O)c1cc(Cl)ccc1-2 |  | < 0.01 µM | < 0.01 µM | < 0.01 µM | < 0.01 µM | < 0.01 µM | < 0.01 µM |  |
